Results as given in ChEMBL document CHEMBL1155002, “Synthesis of phosphatidylated-monoterpene alcohols catalyzed by phospholipase D and their antiproliferative effects on human cancer cells” (2008).
The source made the active and inactive calls. The calls are words filed in the database; no cut-off is given here.

Key:
PC-3 [1] = assay: Antiproliferative activity against human PC3 cells assessed as cell viability at 100 uM after 72 hrs by WST-1 assay; format: functional, cell-based
PC-3 [2] = assay: Antiproliferative activity against human PC3 cells assessed as reduction of cell viability after 72 hrs by WST-1 assay relative to control; format: functional; set-up: concentration or dose not given beside the values
PC-3 [3] = assay: Antiproliferative activity against human PC3 cells assessed as reduction of cell viability at 400 uM after 72 hrs by WST-1 assay; format: functional, cell-based
HL-60 [4] = assay: Antiproliferative activity against human HL60 cells by WST-1 assay; format: functional, cell-based; conditions: TDE = time-dependent effect
HL-60 [5] = assay: Antiproliferative activity against human HL60 cells at 400 uM by WST-1 assay; format: functional, cell-based

SMILES | Activity (PC-3 [1]) | Activity (PC-3 [2]) | Activity (PC-3 [3]) | Activity (HL-60 [4]) | Activity (HL-60 [5])
CC(C)=CCC/C(C)=C/COP(=O)(O)OCC(COC=O)OC=O (configuration not stated) | Active |  |  |  | 
CC(C)=CCC/C(C)=C\COP(=O)(O)OCC(COC=O)OC=O (configuration not stated) | Active |  |  |  | 
CC(C)=CCC/C(C)=C/CO [GERANIOL] |  | 10% | inactive | tde | inactive
CC1(C)C2CC=C(CO)C1C2 (configuration not stated) [MYRTENOL] |  | 10% | inactive | tde | inactive
CC(C)=CCC/C(C)=C\CO [NEROL] |  | 10% | inactive | tde | inactive
C=C(C)[C@@H]1CC=C(CO)CC1 [PERILLYL ALCOHOL] |  | 10% | inactive | tde | inactive
CC1(C)C2CC=C(COP(=O)(O)OCC(COC=O)OC=O)C1C2 (configuration not stated) [PHOSPHATIDYL MYRTENOL] | Active | 10% |  |  | 
C=C(C)C1CC=C(COP(=O)(O)OCC(COC=O)OC=O)CC1 (configuration not stated) [PHOSPHATIDYL PERILLYL ALCOHOL] | Active | 10% |  |  | 
